The test system of experiment [1] is N. gonorrhoea (−). Kind of experiment: porfimer sodium aPDT, planktonic culture. The format is cell-based, Neisseria gonorrhea. As to conditions: 630 nm, 200 J/cm2, porfimer sodium 125 μg/mL. As for the experimental part:
(§1) Bacteria were routinely cultured using tryptic soy broth or agar at 37° C. in a 5% CO2 incubator. Bacteria were isolated and suspended with 0.9% NaCl to an Optical Density (OD) of 0.1 taken at 630 nm, to generate the inoculum used for either planktonic or biofilm assays.
(§2) Experiments using planktonic cultures were carried out using M. catarrhalis, as a standard for further comparisons and to determine the effective drug concentration, porfimer sodium incubation time and light dose parameters which would provide an effective cell kill at the level of 5-7 logs. Once determined the experiments were repeated for all other bacterial strains examined.
(§3) The colony forming units (CFU) per mL of the starting inoculum for every experiment was determined by dilution plating. […]
(§4) Bacteria were exposed to 630 nm laser light via a fiber optic with a lens affixed to the distal end to provide a uniform diverging light field. […] Power output of the laser was measured using a UDT/Gamma Scientific 371 optical power meter and an integrating sphere. […]
(§5) Biofilms were formed on glass coupons in culture dishes containing a bacterial inoculum for 48 hours under conditions specific to the strain. […] Power output of the laser was measured using a UDT/Gamma Scientific 371 optical power meter and an integrating sphere. […]

The test system of experiment [2] is M. catarrhalis (−). The experiment is described as follows: porfimer sodium aPDT, planktonic culture. Type of experiment: cell-based, Moraxella catarrhalis. On the procedure: as §1, §2, §3, §4, §5
Experiment [3] concerns P. anaerobius (+). Kind of experiment: porfimer sodium aPDT, 48 hour biofilm culture. The format is cell-based, Peptostreptococcus anaerobius. The following applies: 630 nm, kill at 100 J/cm2 (light dose 75-100 J/cm2), porfimer sodium 250 μg/mL. As for the experimental part: as §1
(§6) The colony forming units (CFU) per mL of the starting inoculum for every experiment was determined by dilution plating. Control samples were exposed to laser at 630 nm in the absence of porfimer sodium, porfimer sodium in the absence of laser exposure, or in saline alone in the absence of porfimer sodium and 630 nm laser light. All experimental samples were dilution plated to enumerate viable CFU's. Three independent replicates were performed for each reaction condition per strain per assay. […]
as §4, §5

The subject of experiment [4] is P. gingivalis (−). The experiment is described as follows: porfimer sodium aPDT, planktonic culture. The format is cell-based, Porphyromonas gingivalis. As to conditions: 630 nm, kill at 75 J/cm2 (light dose 50-100 J/cm2), porfimer sodium 150 μg/mL. On the procedure:
as §1, §2, §3, §4, §5

In experiment [5] the test system is P. acnes (+). The experiment is described as follows: porfimer sodium aPDT, 48 hour biofilm culture. Type of experiment: cell-based, Proprionibacterium acnes (Cutibacterium acnes). As to conditions: 630 nm, kill at 100 J/cm2 (light dose 75-100 J/cm2), porfimer sodium 250 μg/mL. As for the experimental part:
as §1, §6, §4, §5

Experiment [6] relates to Moraxella catarrhalis, Methicillin resistant Staphylococcus aureus (MRSA), Porphymonas gingivalis, Cutibacterium acnes, Peptostreptococcus anaerobius …. The experiment is described as follows: aPDT on 48 hour biofilms of various strains, CFU (FIG. 2). The format is cell-based. On the procedure: Biofilms were formed on glass coupons in culture dishes containing a bacterial inoculum for 48 hours under conditions specific to the strain. The glass coupon attached biofilms were then rinsed with saline, by dipping method, prior to the administration of the porfimer sodium. The biofilms were incubated in the dark for 15-30 minutes with a reconstituted saline solution of porfimer sodium at final concentrations ranging from 75 μg/ml-250 μg/ml. The porfimer sodium treated biofilms were then exposed to light doses at 630 nm light of 50-200 J/cm^2 at a power density of 150 milliwatts per cm^2. The light was delivered using a fiberoptic with a lens attached at the distal end to provide a uniform light field over the area of the samples being treated. The accuracy of the wavelength delivered was routinely checked using an Optometrics USA Inc. 1 nm/div monochromator. Power output of the laser was measured using a UDT/Gamma Scientific 371 optical power meter and an integrating sphere. Control samples were 1) bacterial suspensions without any light or porfimer sodium (NLNP); and 2) porfimer sodium alone in bacterial suspension without any light (NLP) and 3) light alone (L). The light alone control was exposed to the highest light dose used in that particular experiment. Light doses are in joules/cm^2. Power density was 150 mW/cm^2 for each in vitro trial. […]

The subject of experiment [7] is B. atrophaeus (+). Kind of experiment: porfimer sodium aPDT, planktonic culture. The format is cell-based, Bacillus atrophaeus. The following applies: 630 nm, 200 J/cm2, porfimer sodium 125 μg/mL. On the procedure: as §1, §2, §3, §4, §5
Experiment [8] has as its system S. aureus (+). Kind of experiment: porfimer sodium aPDT, 48 hour biofilm culture. Type of experiment: cell-based, Staphylococcus aureus. As to conditions: 630 nm, kill at 75 J/cm2 (light dose 75-100 J/cm2), porfimer sodium 250 μg/mL. On the procedure:
as §1, §6, §4, §5

For experiment [9], the system named is E. coli (−). The experiment is described as follows: porfimer sodium aPDT, planktonic culture. Type of experiment: cell-based, Escherichia coli. The following applies: 630 nm, 200 J/cm2, porfimer sodium 125 μg/mL. On the procedure: as §1, §2, §3, §4, §5
In experiment [10] the test system is P. anaerobius (+). Kind of experiment: porfimer sodium aPDT, planktonic culture. Type of experiment: cell-based, Peptostreptococcus anaerobius. As to conditions: 630 nm, kill at 75 J/cm2 (light dose 50-100 J/cm2), porfimer sodium 150 μg/mL. As for the experimental part:
as §1, §2, §3, §4, §5

The test system of experiment [11] is S. enterica (−). The experiment is described as follows: porfimer sodium aPDT, planktonic culture. The format is cell-based, Salmonella enterica. As to conditions: 630 nm, 200 J/cm2, porfimer sodium 125 μg/mL. On the procedure:
as §1, §2, §3, §4, §5

In experiment [12] the test system is S. Mutans (+). Kind of experiment: porfimer sodium aPDT, planktonic culture. The format is cell-based, Streptococcus Mutans. As to conditions: 630 nm, 200 J/cm2, porfimer sodium 125 μg/mL. As for the experimental part: as §1, §2, §3, §4, §5
Experiment [13] deals with F. nucleatum (−). The experiment is described as follows: porfimer sodium aPDT, 48 hour biofilm culture. The format is cell-based, Fusobacterium nucleatum. As to conditions: 630 nm, kill at 100 J/cm2 (light dose 75-100 J/cm2), porfimer sodium 250 μg/mL. On the procedure:
as §1, §6, §4, §5

For porfimer sodium, the Rate of kill is 4Log in [1]; 7Log in experiment [2] (630 nm, 200 J/cm2, porfimer sodium 125 μg/mL); above 6Log in experiment [3]; 7Log in experiment [4]; 7Log in experiment [5]; 6Log in experiment [7]. Besides, the Rate of kill is reported as above 6Log in experiment [8]; below 1Log in [9]; 5Log in [10]; 6Log in experiment [11]; above 7Log in [12]; 3Log in experiment [13]. Also, the bacterial cell kill in experiment [2] (125 μg/ml, incubated 10 minutes, light doses 50-100 J/cm^2) was 6-7 logs. Also, the “decrease of viability of the bacteria in biofilm” value in [6] (depending on the dose) was 2-7 logs. The “log reduction at the highest light doses (complete reduction, all strains examined)” value in [6] (highest light doses used) is around 7 log reduction.

The values are drawn from patent US12090204B2, “Photodynamic therapy compositions and methods of use thereof” (Pinnacle Biologics, Inc., priority 2020, dated 2024).
